Experimental data from ChEMBL document CHEMBL1146837, “Effects of fluorine substitution of cytosine analogues on the binding affinity to HIV-1 reverse transcriptase” (Bioorg Med Chem Lett, 2004).

Legend:
Assay type in all cases: functional
[1] = molecular target: Human immunodeficiency virus type 1 reverse transcriptase (Human immunodeficiency virus 1, UniProt Q72547); test: Equilibrium binding constant at the active site of HIV-1 reverse transcriptase
[2] = molecular target: Human immunodeficiency virus type 1 reverse transcriptase (Human immunodeficiency virus 1) (UniProt Q72547); test: Rate of incorporation into a DNA primer directed by a DNA template at the active site of HIV-1 reverse transcriptase
[3] = molecular target: Human immunodeficiency virus type 1 reverse transcriptase (Human immunodeficiency virus 1) (UniProt Q72547); test: Efficiency of incorporation into a DNA primer directed by a DNA template at the active site of HIV-1 reverse transcriptase

Compound Nc1nc(=O)n([C@H]2O[C@@H](COP(=O)(O)OP(=O)(O)OP(=O)(O)O)C=C2F)cc1F has a Kd [1] of 64 µM, a Kpol [2] of 0.15 s⁻¹ and an Efficiency [3] of 0.0023 µM⁻¹ s⁻¹.
For Nc1ccn([C@@H]2CS[C@H](COP(=O)(O)OP(=O)(O)OP(=O)(O)O)O2)c(=O)n1 [LAMIVUDINE TRIPHOSPHATE], the Kd [1] was 15 µM, the Kpol [2] was 0.019 s⁻¹ and the Efficiency [3] was 0.0013 µM⁻¹ s⁻¹.
Nc1nc(=O)n([C@@H]2CS[C@H](COP(=O)(O)OP(=O)(O)OP(=O)(O)O)O2)cc1F [EMTRICITABINE 5'-TRIPHOSPHATE] gave a Kd [1] of 12 µM, a Kpol [2] of 0.039 s⁻¹ and an Efficiency [3] of 0.0033 µM⁻¹ s⁻¹.
Nc1nc(=O)n([C@@H]2C=C[C@H](COP(=O)(O)OP(=O)(O)OP(=O)(O)O)O2)cc1F showed a Kd [1] of 31 µM, a Kpol [2] of 0.95 s⁻¹ and an Efficiency [3] of 0.031 µM⁻¹ s⁻¹.
Work on Nc1ccn([C@@H]2C=C[C@H](COP(=O)(O)OP(=O)(O)OP(=O)(O)O)O2)c(=O)n1 yielded a Kd [1] of 18 µM, a Kpol [2] of 0.16 s⁻¹ and an Efficiency [3] of 0.0086 µM⁻¹ s⁻¹.
